From US10406158B2, “Methods and compositions for treating abnormal cell growth” (Verastem, Inc., priority 2014, dated 2019)

Experiments:
[1] = system: mesothelioma cells (Mero-41); assay: Matrigel on-top (MoT) 3D culture, CellTiter-Glo cell viability, 9x9 combination matrix; format: cell-based; conditions: MEK inhibitor in combination with FAK inhibitor VS-6063, 96 hours incubation, compared with Bliss, HSA and Loewe models
Method: (§1) Cell Lines: Cancer cell lines were purchased from American Type Culture Collection (Manassas, VA) and cultured under ATCC recommended standard culture conditions. Mero-41 (mesothelioma cell line) were purchased from Sigma-Aldrich (St. Louis, MO) and cultured under ECACC recommended standard culture conditions. […] TOV-21G (ovarian clear cell carcinoma cell line) were cultured under ECACC recommended standard culture conditions. Growth media for all cell lines were supplemented with penicillin (100 units/ml)/streptomycin (100 μg/ml).
(§2) Compound were used at the top concentration 10 uM in a 2-fold dilution. Paclitaxel was dosed at the top concentration 1 uM in a 3-fold dilution.
(§3) A ‘Matrigel on-top’ (MoT) assay where cells were propagated in a 3-dimentional culture was used. Cells were plated above a dense base layer of Matrigel (BD Biosciences, Franklin Lakes, N.J.), diluted 1:1 with culture medium. Single cell preparations were resuspended in dilute Matrigel (1:50 in culture medium) and seeded to cover the Matrigel base layer. This ensured that ovarian cancer cells were surrounded with extracellular matrix (ECM) components, of which collagen and laminin are the major Matrigel constituents. Cells were seeded in a density of 500 cells per well in 384-well black Ultra-low attachment plates with clear bottom (Corning, Tewksbury MA). […] Cell survival/proliferation was assessed by CellTiter-Glo® Luminescent Cell Viability Assay (Promega, Madison, Wis.).
(§4) Combination effects were evaluated by comparing the averaged viability/inhibition to three different null reference models derived from the single agent activities.
(§5) The expected additivity effect is the statistical expectation for the combined effect from independent inhibitors: Mathematically, Bliss (FU)=FUA1 X FUA2, where FUA1 and FUA2 are the unaffected fraction when treated with compounds Al and A2, respectively.

[2] = system: breast cancer cells (MDA-MB-231); assay: as above; format: cell-based; conditions: MEK inhibitor in combination with FAK inhibitor VS-6063, 96 hours incubation, compared with Bliss, HSA and Loewe models
Method: as §1, §2, §3, §4, §5

Row | Compound | combination effect on cell viability [1] | combination effect on cell viability [2]
1 | trametinib | more than additive effect | more than additive effect
2 | Cn1cnc2c(F)c(Nc3ccc(Br)cc3Cl)c(C(=O)NOCCO)cc21 [AZD-6244] | more than additive effect | –
3 | O=C(NOCCO)c1ccc2cncn2c1Nc1ccc(I)cc1F [GDC-0623] | more than additive effect | more than additive effect
4 | cobimetinib | more than additive effect | more than additive effect
5 | O=C(NC[C@H](O)CO)c1ccncc1Nc1ccc(I)cc1F [pimasertib] | more than additive effect | more than additive effect
